US9382197B2, “Substituted hydroxamic acids and uses thereof” (Millennium Pharmaceuticals, Inc., priority 2010, dated 2016)

These molecules were tested against T1, purified human HDAC6 (Homo sapiens, UniProt Q9UBN7) (assay: HDAC6 Enzyme Assay). Details: bin: greater than 500 nM and less than 1 μM (lower bound in nM, upper bound in μM).
T1 construct: purchased BPS Bioscience 5006
T1 sequence (Q9UBN7 1-1215): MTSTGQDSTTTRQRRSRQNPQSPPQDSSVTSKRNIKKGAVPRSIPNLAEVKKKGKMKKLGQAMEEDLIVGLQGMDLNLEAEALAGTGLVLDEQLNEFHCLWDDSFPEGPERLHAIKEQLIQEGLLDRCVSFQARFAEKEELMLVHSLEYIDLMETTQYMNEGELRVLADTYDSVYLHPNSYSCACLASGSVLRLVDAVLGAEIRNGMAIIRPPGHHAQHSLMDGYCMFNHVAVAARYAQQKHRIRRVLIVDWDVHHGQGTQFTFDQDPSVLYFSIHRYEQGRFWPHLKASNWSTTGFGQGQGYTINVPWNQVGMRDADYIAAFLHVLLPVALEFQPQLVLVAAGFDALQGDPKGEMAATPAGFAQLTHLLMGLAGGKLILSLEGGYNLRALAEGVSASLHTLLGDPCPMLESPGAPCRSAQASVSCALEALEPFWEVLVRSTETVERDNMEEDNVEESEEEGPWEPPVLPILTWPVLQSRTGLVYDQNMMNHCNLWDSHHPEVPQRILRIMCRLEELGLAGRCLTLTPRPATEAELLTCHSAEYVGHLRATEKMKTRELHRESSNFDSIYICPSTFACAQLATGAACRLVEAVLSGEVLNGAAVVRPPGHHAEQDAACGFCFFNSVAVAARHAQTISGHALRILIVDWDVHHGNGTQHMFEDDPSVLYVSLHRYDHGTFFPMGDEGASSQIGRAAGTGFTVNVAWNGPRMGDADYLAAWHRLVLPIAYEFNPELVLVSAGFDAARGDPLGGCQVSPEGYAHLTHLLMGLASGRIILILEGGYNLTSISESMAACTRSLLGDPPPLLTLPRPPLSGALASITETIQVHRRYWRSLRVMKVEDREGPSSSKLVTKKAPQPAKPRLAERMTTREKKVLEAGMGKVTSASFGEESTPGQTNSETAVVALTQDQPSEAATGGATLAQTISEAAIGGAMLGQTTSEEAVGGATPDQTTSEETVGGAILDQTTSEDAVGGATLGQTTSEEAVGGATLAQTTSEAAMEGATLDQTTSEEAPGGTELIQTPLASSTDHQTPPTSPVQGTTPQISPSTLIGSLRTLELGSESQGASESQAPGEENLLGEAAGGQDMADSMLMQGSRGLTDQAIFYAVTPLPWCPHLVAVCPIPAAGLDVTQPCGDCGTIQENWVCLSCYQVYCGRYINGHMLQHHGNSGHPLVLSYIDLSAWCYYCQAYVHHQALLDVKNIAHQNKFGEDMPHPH
Assay type: biochemical
Procedure, shortened: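 Purified human HDAC6 incubated 1 h at 30 °C with Ac-Arg-Gly-Lys(Ac)-AMC and compound; trichostatin A stop, trypsin release of AMC, fluorescence Ex 340/Em 460 nm. IC50 from concentration–response relative to DMSO.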

Row | SMILES | IC50
1 | CC(C)(C)C(NC(=O)c1ccc(C(F)(F)F)cc1)c1ccc(C(=O)NO)cc1 (stereo not drawn) [Compound I-303, 4-(2,2-dimethyl-1-{[4-(trifluoromethyl)benzoyl]amino}propyl)-N-hydroxybenzamide] | 500 to 1000 nM
2 | CC(NC(=O)c1cc(C(C)(C)C)nn1C)c1cccc(C(=O)NO)c1 (stereo not drawn) [Compound I-309, 3-tert-butyl-N-(1-{3-[(hydroxyamino)carbonyl]phenyl}ethyl)-1-methyl-1H-pyrazole-5-carboxamide] | 500 to 1000 nM

Same assay, conditions: bin: greater than 1 μM

Row | SMILES | IC50
3 | CC(C)C(NC(=O)C(c1ccccc1)C(C)C)c1ccc(C(=O)NO)cc1 (stereo not drawn) [Compound I-289, N-hydroxy-4-{2-methyl-1-[(3-methyl-2-phenylbutanoyl)amino]propyl}benzamide] | > 1000 nM
4 | CC(NC(=O)Cc1ccccc1Cl)c1ccc(C(=O)NO)cc1 (stereo not drawn) [Compound I-292, 4-(1-{[(2-chlorophenyl)acetyl]amino}ethyl)-N-hydroxybenzamide] | > 1000 nM
5 | CC(NC(=O)C1CCCC1)c1cccc(C(=O)NO)c1 (stereo not drawn) [Compound I-311, 3-{1-[(cyclopentylcarbonyl)amino]ethyl}-N-hydroxybenzamide] | > 1000 nM
6 | C[C@@H](NC(=O)C12CC3CC(CC(C3)C1)C2)c1cccc(C(=O)NO)c1 [Compound I-312, N-((1R)-1-{3-[(hydroxyamino)carbonyl]phenyl}ethyl)adamantane-1-carboxamide] | > 1000 nM
7 | CC(NC(=O)CC1CCOCC1)c1ccc(C(=O)NO)cc1 (stereo not drawn) [Compound I-313, N-hydroxy-4-{1-[(tetrahydro-2H-pyran-4-ylacetyl)amino]ethyl}benzamide] | > 1000 nM
8 | CC(NC(=O)Cc1cccc(C(F)(F)F)c1)c1cccc(C(=O)NO)c1 (stereo not drawn) [Compound I-314, N-hydroxy-3-[1-({[3-(trifluoromethyl)phenyl]acetyl}amino)ethyl]benzamide] | > 1000 nM

Same assay, conditions: purified human HDAC6, substrate Ac-Arg-Gly-Lys(Ac)-AMC, 1 hour at 30° C.; reported as bins

Row | SMILES | IC50
9 | CC(C)(C)NC(=O)N[C@H](c1ccc(C(=O)NO)cc1)C(F)(F)F [Compound I-290, 4-((1R)-1-{[(tert-butylamino)carbonyl]amino}-2,2,2-trifluoroethyl)-N-hydroxybenzamide] | 100 to 500 nM
10 | Cn1nc(C(C)(C)C)cc1C(=O)NC(c1ccc(C(=O)NO)cc1)C(C)(C)C (stereo not drawn) [Compound I-291, 3-tert-butyl-N-(1-{4-[(hydroxyamino)carbonyl]phenyl}-2,2-dimethylpropyl)-1-methyl-1H-pyrazole-5-carboxamide] | 100 to 500 nM
11 | CC(NC(=O)Nc1cccc2nsnc12)c1ccc(C(=O)NO)cc1 (stereo not drawn) [Compound I-293, 4-(1-{[(2,1,3-benzothiadiazol-4-ylamino)carbonyl]amino}ethyl)-N-hydroxybenzamide] | < 100 nM
12 | C[C@H](NC(=O)c1cc2ccccc2n1C)c1cccc(C(=O)NO)c1 [Compound I-294, N-((1S)-1-{3-[(hydroxyamino)carbonyl]phenyl}ethyl)-1-methyl-1H-indole-2-carboxamide] | 100 to 500 nM
13 | Cc1cccc(C(=O)NC(C)c2ccc(C(=O)NO)cc2)c1 (stereo not drawn) [Compound I-295, N-(1-{4-[(hydroxyamino)carbonyl]phenyl}ethyl)-3-methylbenzamide] | < 100 nM
14 | O=C(NO)c1ccc([C@H](NC(=O)c2ccc(-c3ccccc3)cc2)C(F)(F)F)cc1 [Compound I-296, N-((1S)-2,2,2-trifluoro-1-{4-[(hydroxyamino)carbonyl]phenyl}ethyl)biphenyl-4-carboxamide] | < 100 nM
15 | CC(NC(=O)c1ccc2c(c1)OCO2)c1ccc(C(=O)NO)cc1 (stereo not drawn) [Compound I-297, N-(1-{4-[(hydroxyamino)carbonyl]phenyl}ethyl)-1,3-benzodioxole-5-carboxamide] | < 100 nM
16 | CC(NC(=O)C1(c2ccccc2)CCCC1)c1ccc(C(=O)NO)cc1 (stereo not drawn) [Compound I-298, N-hydroxy-4-(1-{[(1-phenylcyclopentyl)carbonyl]amino}ethyl)benzamide] | 100 to 500 nM
17 | CCC[C@@H](NC(=O)c1cc2ccccc2s1)c1ccc(C(=O)NO)cc1 [Compound I-299, N-((1R)-1-{4-[(hydroxyamino)carbonyl]phenyl}butyl)-1-benzothiophene-2-carboxamide] | < 100 nM
18 | CC(C)C(NC(=O)C1(c2ccc(Cl)cc2)CC1)c1ccc(C(=O)NO)cc1 (stereo not drawn) [Compound I-300, 4-[1-({[1-(4-chlorophenyl)cyclopropyl]carbonyl}amino)-2-methylpropyl]-N-hydroxybenzamide] | 100 to 500 nM
19 | C[C@@H](NC(=O)c1cc(Cl)c(Cl)n1C)c1cccc(C(=O)NO)c1 [Compound I-301, 4,5-dichloro-N-((1R)-1-{3-[(hydroxyamino)carbonyl]phenyl}ethyl)-1-methyl-1H-pyrrole-2-carboxamide] | 100 to 500 nM
20 | CC(NS(=O)(=O)c1ccc(Cl)cc1)c1ccc(C(=O)NO)cc1 (stereo not drawn) [Compound I-302, 4-(1-{[(4-chlorophenyl)sulfonyl]amino}ethyl)-N-hydroxybenzamide] | 100 to 500 nM
21 | Cc1c(C(=O)N[C@@H](c2ccc(C(=O)NO)cc2)C(F)(F)F)oc2ccccc12 [Compound I-304, 3-methyl-N-((1S)-2,2,2-trifluoro-1-{4-[(hydroxyamino)carbonyl]phenyl}ethyl)-1-benzofuran-2-carboxamide] | < 100 nM
22 | Cc1onc(-c2ccccc2)c1NC(=O)NC(C)c1ccc(C(=O)NO)cc1 (stereo not drawn) [Compound I-305, N-hydroxy-4-[1-({[(5-methyl-3-phenylisoxazol-4-yl)amino]carbonyl}amino)ethyl]benzamide] | 100 to 500 nM
23 | COc1cccc2cc(C(=O)NC(c3ccc(C(=O)NO)cc3)C(C)C)oc12 (stereo not drawn) [Compound I-306, N-(1-{4-[(hydroxyamino)carbonyl]phenyl}-2-methylpropyl)-7-methoxy-1-benzofuran-2-carboxamide] | < 100 nM
24 | Cc1c(C(=O)N[C@@H](c2ccc(C(=O)NO)cc2)C(C)C)sc2ccccc12 [Compound I-307, N-((1R)-1-{4-[(hydroxyamino)carbonyl]phenyl}-2-methylpropyl)-3-methyl-1-benzothiophene-2-carboxamide] | < 100 nM
25 | CC(C)(C)C(NC(=O)c1cc2ccccc2s1)c1ccc(C(=O)NO)cc1 (stereo not drawn) [Compound I-308, N-(1-{4-[(hydroxyamino)carbonyl]phenyl}-2,2-dimethylpropyl)-1-benzothiophene-2-carboxamide] | < 100 nM
26 | Cc1cc(C(=O)NC(c2ccc(C(=O)NO)cc2)C(C)(C)C)c(C)[nH]1 (stereo not drawn) [Compound I-310, N-(1-{4-[(hydroxyamino)carbonyl]phenyl}-2,2-dimethylpropyl)-2,5-dimethyl-1H-pyrrole-3-carboxamide] | 100 to 500 nM
27 | CC(NS(=O)(=O)c1ccccc1)c1ccc(C(=O)NO)cc1 (stereo not drawn) [Compound I-315, N-hydroxy-4-{1-[(phenylsulfonyl)amino]ethyl}benzamide] | 100 to 500 nM
28 | Cc1cccc(CNC(=O)NC(C)c2ccc(C(=O)NO)cc2)c1 (stereo not drawn) [Compound I-316, N-hydroxy-4-[1-({[(3-methylbenzyl)amino]carbonyl}amino)ethyl]benzamide] | 100 to 500 nM
29 | C[C@@H](NC(=O)c1cc2ccccc2o1)c1ccc(C(=O)NO)cc1 [Compound I-317, N-((1R)-1-{4-[(hydroxyamino)carbonyl]phenyl}ethyl)-1-benzofuran-2-carboxamide] | < 100 nM
30 | CCc1cc(C(=O)NC(c2ccc(C(=O)NO)cc2)C(C)(C)C)n(C)n1 (stereo not drawn) [Compound I-318, 3-ethyl-N-(1-{4-[(hydroxyamino)carbonyl]phenyl}-2,2-dimethylpropyl)-1-methyl-1H-pyrazole-5-carboxamide] | 100 to 500 nM
